This passage reports DC50 and Dmax results from patent US20230322761A1, “DEGRADATION OF BRUTON'S TYROSINE KINASE (BTK) BY CONJUGATION OF BTK INHIBITORS WITH E3 LIGASE LIGAND AND METHODS OF USE” (BEIGENE, LTD., priority 2020, published 2023).

This assay deals with T1, BTK (Homo sapiens, UniProt Q06187).
T1 construct: endogenous in cells; host or cells: TMD-8 cells
Kind of assay: BTK degradation in TMD-8 cells, HTRF assay after 6 h treatment. As to conditions: for DC50: IC50 (DC50) of BTK degradation; for Dmax: TMD8, maximum percentage of inhibition (degradation). The class given is cell-based. The procedure:
TMD-8 cells are treated with compounds diluted in 0.2% DMSO, dilution is done according to the following protocol: (1) make 500× stock solution in DMSO from 1 mM by 6-fold dilution, total 8 doses were included; (2) make 2× solution in cell culture medium by transferring 0.5 μl 500× stock solution into 125 μl medium; (3) 15 μl of 2× solution is added to cells and incubate for 6 h.
After 6 h treatment, add 10 μl 4×lysis buffer to each well; seal the plate and incubate 30 min at room temperature on a plate shaker; Once the cells are lysed, 16 μL of cell lysate are transferred to a PE 384-well HTRF detection plate; 4 μL of pre-mixed HTRF antibodies are added to each well; Cover the plate with a plate sealer, spin 1000 rpm for 1 min, Incubate overnight at room temperature; Read on BMG PheraStar with HTRF protocol (337 nm-665 nm-620 nm).
The IC50 (DC50) value of a compound can be obtained by fitting the following equation
Y=Bottom+(TOP−Bottom)/(1+((IC50/X)^hillslope))
Wherein, X and Y are known values, and IC50, Hillslope, Top and Bottom are the parameters obtained by fitting with software. Y is the inhibition percentage (calculated from the equation), X is the concentration of the compound; IC50 is the concentration of the compound when the 50% inhibition is reached. The smaller the IC50 value is, the stronger the inhibitory ability of the compound is. Vice versa, the higher the IC50 value is, the weaker the ability the inhibitory ability of the compound is; Hillslope represents the slope of the fitted curve, generally around 1*; Bottom represents the minimum value of the curve obtained by data fitting, which is generally 0%±20%; Top represents the maximum value of the curve obtained by data fitting, which is generally 100%±20%. The experimental data were fitted by calculating and analyzing with Dotmatics data analysis software.
For orientation: In TR-FRET formats the signal depends on donor and acceptor labels being close together.

T1 sequence (Q06187 whole entry): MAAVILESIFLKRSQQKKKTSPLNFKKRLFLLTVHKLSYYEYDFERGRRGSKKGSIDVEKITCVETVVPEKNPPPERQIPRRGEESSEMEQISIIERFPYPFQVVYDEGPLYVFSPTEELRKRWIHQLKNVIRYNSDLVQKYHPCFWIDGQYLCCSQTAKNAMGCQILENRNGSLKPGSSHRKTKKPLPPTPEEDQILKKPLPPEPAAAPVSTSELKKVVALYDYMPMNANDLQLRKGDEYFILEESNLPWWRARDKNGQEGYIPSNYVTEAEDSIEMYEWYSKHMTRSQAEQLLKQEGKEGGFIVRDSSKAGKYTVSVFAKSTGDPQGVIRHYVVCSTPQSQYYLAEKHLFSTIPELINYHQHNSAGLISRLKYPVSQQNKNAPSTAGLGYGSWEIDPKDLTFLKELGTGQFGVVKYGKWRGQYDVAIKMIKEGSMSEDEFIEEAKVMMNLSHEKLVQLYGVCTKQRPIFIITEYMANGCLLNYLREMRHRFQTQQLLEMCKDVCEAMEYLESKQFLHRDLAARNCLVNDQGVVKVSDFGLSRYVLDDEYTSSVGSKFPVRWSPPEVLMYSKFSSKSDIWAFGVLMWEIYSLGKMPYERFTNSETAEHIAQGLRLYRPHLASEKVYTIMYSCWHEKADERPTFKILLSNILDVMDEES

Regarding `Cc1cc(-c2n[nH]c3ncc(-c4ccc(C5CCN(CC6CCN(c7ccc(N8CCC(=O)NC8=O)cc7)CC6)CC5)cc4)cc23)ccc1CNC(=O)c1noc(C(C)(C)C)n1` [Example 1, 5-(tert-butyl)-N-(4-(5-(4-(1-((1-(4-(2,4-dioxotetrahydropyrimidin-1(2H)-yl)phenyl)piperidin-4-yl)methyl)piperidin-4-yl)phenyl)-1H-pyrazolo[3,4-b]pyridin-3-yl)-2-methylbenzyl)-1,2,4-oxadiazole-3-carboxamide], the DC50 (as a rule, the midpoint of the concentration-degradation curve) came to 0.978 nM and the Dmax (in general, the greatest extent of degradation seen) is 96.7%.
For `Cc1cc(-c2n[nH]c3ncc(-c4ccc(C5CCN(CCCOc6ccc(NC7CCC(=O)NC7=O)cc6)CC5)cc4)cc23)ccc1CNC(=O)c1noc(C(C)(C)C)n1` (centres unmarked) [Example 2, 5-(tert-butyl)-N-(4-(5-(4-(1-(3-(4-((2,6-dioxopiperidin-3-yl)amino)phenoxy)propyl)piperidin-4-yl)phenyl)-1H-pyrazolo[3,4-b]pyridin-3-yl)-2-methylbenzyl)-1,2,4-oxadiazole-3-carboxamide], in that order: 0.953 nM and 96.2%.
On to `Cc1cc(-c2n[nH]c3ncc(-c4ccc(C5CCN(CCc6ccc(C7CCC(=O)NC7=O)cc6)CC5)cc4)cc23)ccc1CNC(=O)c1noc(C(C)(C)C)n1` (centres unmarked) [Example 3, 5-(tert-butyl)-N-(4-(5-(4-(1-(4-(2,6-dioxopiperidin-3-yl)phenethyl)piperidin-4-yl)phenyl)-1H-pyrazolo[3,4-b]pyridin-3-yl)-2-methylbenzyl)-1,2,4-oxadiazole-3-carboxamide], for which it took 0.714 nM to reach half-maximal degradation (DC50) and the Dmax was 97.1%.
On to `Cc1cc(-c2n[nH]c3ncc(-c4ccc(C5CCN(CC6CCN(c7ccc(N8CCC(=O)NC8=O)cc7)CC6)CC5)cc4)cc23)ccc1CNC(=O)c1nc(C(C)(C)C)no1` [Example 4, 3-(tert-butyl)-N-(4-(5-(4-(1-((1-(4-(2,4-dioxotetrahydropyrimidin-1(2H)-yl)phenyl)piperidin-4-yl)methyl)piperidin-4-yl)phenyl)-1H-pyrazolo[3,4-b]pyridin-3-yl)-2-methylbenzyl)-1,2,4-oxadiazole-5-carboxamide], for which the DC50 came out at 1.19 nM and the Dmax came out at 96.7%.
For `Cc1cc(-c2n[nH]c3ncc(-c4ccc(C5CCN(CCC6CCN(c7ccc(N8CCC(=O)NC8=O)cc7)CC6)CC5)cc4)cc23)ccc1CNC(=O)c1nc(C(C)(C)C)no1` [Example 5, 3-(tert-butyl)-N-(4-(5-(4-(1-(2-(1-(4-(2,4-dioxotetrahydropyrimidin-1(2H)-yl)phenyl)piperidin-4-yl)ethyl)piperidin-4-yl)phenyl)-1H-pyrazolo[3,4-b]pyridin-3-yl)-2-methylbenzyl)-1,2,4-oxadiazole-5-carboxamide], in that order: 1.55 nM and 97%.
Regarding `Cc1cc(-c2n[nH]c3ncc(-c4ccc(C5CCN(CCc6ccc(N7CCC(=O)NC7=O)cc6)CC5)cc4)cc23)ccc1CNC(=O)c1noc(C(C)(C)C)n1` [Example 6, 5-(tert-butyl)-N-(4-(5-(4-(1-(4-(2,4-dioxotetrahydropyrimidin-1(2H)-yl)phenethyl)piperidin-4-yl)phenyl)-1H-pyrazolo[3,4-b]pyridin-3-yl)-2-methylbenzyl)-1,2,4-oxadiazole-3-carboxamide], the DC50 is 2.94 nM and the Dmax was found to be 97%.
For `Cc1cc(-c2n[nH]c3ncc(-c4ccc(CCN5CCC(c6ccc(C7CCC(=O)NC7=O)cc6)CC5)cc4)cc23)ccc1CNC(=O)c1noc(C(C)(C)C)n1` (centres unmarked) [Example 8, 3-(tert-butyl)-N-(4-(5-(4-(2-(4-(4-(2,6-dioxopiperidin-3-yl)phenyl)piperidin-1-yl)ethyl)phenyl)-1H-pyrazolol[3,4-b]pyridin-3-yl)-2-methylbenzyl)-1,2,4-oxadiazole-5-carboxamide], half-maximal degradation (DC50) was put at 1.4 nM and the Dmax was 101%.
The matching figures for `Cc1cc(-c2n[nH]c3ncc(-c4ccc(C5CCN(CCc6ccc(C7CCC(=O)NC7=O)cc6)CC5)cc4)cc23)ccc1CNC(=O)c1nc(C(C)(C)C)no1` (centres unmarked) [Example 9, 3-(tert-butyl)-N-(4-(5-(4-(1-(4-(2,6-dioxopiperidin-3-yl)phenethyl)piperidin-4-yl)phenyl)-1H-pyrazolo[3,4-b]pyridin-3-yl)-2-methylbenzyl)-1,2,4-oxadiazole-5-carboxamide]: 1.9 nM and 100%.
For `CC(C)(C)c1noc(C(=O)NCc2ccc(-c3n[nH]c4ncc(-c5ccc(C6CCN(CC7CCN(c8ccc(N9CCC(=O)NC9=O)cc8)CC7)CC6)cc5)cc34)cc2F)n1` [Example 10, 3-(tert-butyl)-N-(4-(5-(4-(1-((1-(4-(2,4-dioxotetrahydropyrimidin-1(2H)-yl)phenyl)piperidin-4-yl)methyl)piperidin-4-yl)phenyl)-1H-pyrazolo[3,4-b]pyridin-3-yl)-2-fluorobenzyl)-1,2,4-oxadiazole-5-carboxamide], in that order: 10.8 nM and 97.1%.
`CC(C)(C)c1noc(C(=O)NCc2ccc(-c3n[nH]c4ncc(-c5ccc(N6CCN(CC7CCN(c8ccc(N9CCC(=O)NC9=O)cc8)CC7)CC6)cc5)cc34)cc2F)n1` [Example 11, 3-(tert-butyl)-N-(4-(5-(4-(4-((1-(4-(2,4-dioxotetrahydropyrimidin-1(2H)-yl)phenyl)piperidin-4-yl)methyl)piperazin-1-yl)phenyl)-1H-pyrazolo[3,4-b]pyridin-3-yl)-2-fluorobenzyl)-1,2,4-oxadiazole-5-carboxamide]: it took 5.98 nM to reach half-maximal degradation (DC50) and the Dmax was 94.1%.
With `CC(C)(C)c1noc(C(=O)NCc2ccc(-c3n[nH]c4ncc(-c5ccc(C6CCN(CCC7CCN(c8ccc(N9CCC(=O)NC9=O)cc8)CC7)CC6)cc5)cc34)cc2F)n1` [Example 12, 3-(tert-butyl)-N-(4-(5-(4-(1-(2-(1-(4-(2,4-dioxotetrahydropyrimidin-1(2H)-yl)phenyl)piperidin-4-yl)ethyl)piperidin-4-yl)phenyl)-1H-pyrazolo[3,4-b]pyridin-3-yl)-2-fluorobenzyl)-1,2,4-oxadiazole-5-carboxamide], the DC50 came to 5.17 nM and the Dmax came out at 95.7%.
For `CC(C)(C)c1noc(C(=O)NCc2ccc(-c3n[nH]c4ncc(-c5ccc(C6CCN(CCc7ccc(N8CCC(=O)NC8=O)cc7)CC6)cc5)cc34)cc2F)n1` [Example 13, 3-(tert-butyl)-N-(4-(5-(4-(1-(4-(2,4-dioxotetrahydropyrimidin-1(2H)-yl)phenethyl)piperidin-4-yl)phenyl)-1H-pyrazolo[3,4-b]pyridin-3-yl)-2-fluorobenzyl)-1,2,4-oxadiazole-5-carboxamide], in that order: 25.7 nM and 93%.
The matching figures for `CC(C)(C)c1noc(C(=O)NCc2ccc(-c3n[nH]c4ncc(-c5ccc(C6CCN(CCc7ccc(C8CCC(=O)NC8=O)cc7)CC6)cc5)cc34)cc2F)n1` (centres unmarked) [Example 14, 3-(tert-butyl)-N-(4-(5-(4-(1-(4-(2,6-dioxopiperidin-3-yl)phenethyl)piperidin-4-yl)phenyl)-1H-pyrazolo[3,4-b]pyridin-3-yl)-2-fluorobenzyl)-1,2,4-oxadiazole-5-carboxamide]: 4.74 nM and 95.2%.
